Consider three molecules from patent US8476081B2, “Assay for evaluating affinity and specificity of ligand-albumin binding” (Janssen Pharmaceutica NV, priority 2009, dated 2013).

In general, Kd refers to a measure of binding affinity in units of concentration. Broadly, the IC50 is the midpoint of a concentration-inhibition curve. A higher IC50 goes with a need for much substance.

Like-named read-outs stand apart in the source and are kept apart here.

The target of data set [1] is T1, Bovine Serum Albumin (BSA) (Bos taurus, UniProt P02769).
T1 construct: The above albumins were prepared using method IV of Cohn et al. (J. Am. Chem. Soc. 69: 1753-1761, 1947) and purified with 1× crystallization; purchased Sigma A-7638
T1 sequence (P02769 25-607): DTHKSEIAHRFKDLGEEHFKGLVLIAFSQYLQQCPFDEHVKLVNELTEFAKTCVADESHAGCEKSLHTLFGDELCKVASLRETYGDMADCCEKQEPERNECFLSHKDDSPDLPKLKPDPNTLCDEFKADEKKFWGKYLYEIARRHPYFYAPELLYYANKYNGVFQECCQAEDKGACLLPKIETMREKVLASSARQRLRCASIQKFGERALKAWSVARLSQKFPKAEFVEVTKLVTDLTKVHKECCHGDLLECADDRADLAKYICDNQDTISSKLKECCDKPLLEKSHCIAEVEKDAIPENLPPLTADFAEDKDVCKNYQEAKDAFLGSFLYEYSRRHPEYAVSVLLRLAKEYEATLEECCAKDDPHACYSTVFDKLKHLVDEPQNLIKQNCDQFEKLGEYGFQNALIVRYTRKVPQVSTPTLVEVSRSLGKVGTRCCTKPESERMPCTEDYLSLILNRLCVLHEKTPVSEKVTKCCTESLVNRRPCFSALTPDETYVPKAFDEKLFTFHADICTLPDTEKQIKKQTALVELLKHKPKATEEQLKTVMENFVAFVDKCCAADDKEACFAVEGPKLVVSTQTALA
In words: ThermoFluor thermal shift assay with bovine serum albumin. It counts as binding. As to conditions: Example 4, Table 3. An excerpt:
(§1) To evaluate the bioavailability of a compound in various species, the compound's affinity and specificity to albumins from human, bovine, rat, and mouse were examined. […] The resulting 1× reaction mixture comprising human serum albumin, bovine serum albumin, rat serum albumin, or mouse serum albumin was used with a panel of compounds in the binding assay.
On the technique in general: In DSF a fluorescence change marks the thermal transition of the protein.

Data set [2] has as its target Human Serum Albumin (HSA) (Homo sapiens, UniProt P02768). Kind of data set: ThermoFluor thermal shift assay with human serum albumin. The following applies: for Type of HSA Binding Interaction: classified from KD versus IC50 and % displacement of 1,8-ANS. On the procedure:
(§2) 1× reaction mixture of about 50 μg/mL human serum albumin, about 4 μM 1,8-ANS, about 150 mM NaCl, about 25 mM PIPES, pH 7.2, and about 0.002% Tween®-20 was prepared.
(§3) To prevent evaporation, about 1 μL of silicone oil was added to the plate using multichannel pipettors.
The plates were loaded onto a ThermoFluor® device and heated from about 25° C. to about 95° C. at a ramp-rate of about 1° C. per minute. Fluorescence was measured by continuous illumination with UV light (Hamamatsu LC6) via fiber optic and filtered through a band-pass filter of about 390±10 nm; >6 OD cutoff. Fluorescence emissions were detected by measuring light intensity using a CCD camera (Sensys, Roper Scientific) filtered to detect about 500±25 nm; >6 OD cutoff. This allows for the entire plate to be simultaneously monitored and each sample to be independently monitored. One or more images were collected at an interval of every about 0.5° C. to about 1° C. The sum of the pixel intensity at a given area of the plate was recorded vs. temperature.
(§4) The values of Tm, ΔH, yF,Tm, mF, yU,Tm and mU were calculated for each sample according to Equation 9. Further, the value of Tm over the compound concentration was used to calculate the binding constant (KD) using Equation 10b. A shift in the denaturation curve of albumin indicates whether the compound binds to albumin, and the value of KD indicates the binding strength of compounds to albumin. A shift of the fluorescence signal indicates the specificity of compounds to albumin, and the value of IC50 indicates the binding strength to the site I (Equation 11).
(§5) The compounds and 1× reaction mixture were dispensed and measured for the fluorescence value using the plate-based reader Tecan® Safire II. Then the plate was heated in a ThermoFluor® system and measured for fluorescence value and the thermal shift value. The fluorescence values were measured twice by both plate reader and ThermoFluor®. The fluorescence value obtained from ThermoFluor® was used for qualitative assessment whereas those from the plate reader was used for quantitative assessment. The value of IC50 was determined by the fluorescence obtained from the plate reader and was fit using Equation 11 described above. The value of KD was determined by the readings from ThermoFluor® and was fit using Equation 10b described above.

Data set [3] has as its target HSA (Homo sapiens, UniProt P02768). The following applies: binding site on HSA from previous reports; cited from earlier work.
Data set [4] deals with T2, Rat Serum Albumin (Rattus norvegicus, UniProt P02770).
T2 construct: The above albumins were prepared using method IV of Cohn et al. (J. Am. Chem. Soc. 69: 1753-1761, 1947) and purified with 1× crystallization; purchased Sigma A-6414
T2 sequence (P02770 25-608): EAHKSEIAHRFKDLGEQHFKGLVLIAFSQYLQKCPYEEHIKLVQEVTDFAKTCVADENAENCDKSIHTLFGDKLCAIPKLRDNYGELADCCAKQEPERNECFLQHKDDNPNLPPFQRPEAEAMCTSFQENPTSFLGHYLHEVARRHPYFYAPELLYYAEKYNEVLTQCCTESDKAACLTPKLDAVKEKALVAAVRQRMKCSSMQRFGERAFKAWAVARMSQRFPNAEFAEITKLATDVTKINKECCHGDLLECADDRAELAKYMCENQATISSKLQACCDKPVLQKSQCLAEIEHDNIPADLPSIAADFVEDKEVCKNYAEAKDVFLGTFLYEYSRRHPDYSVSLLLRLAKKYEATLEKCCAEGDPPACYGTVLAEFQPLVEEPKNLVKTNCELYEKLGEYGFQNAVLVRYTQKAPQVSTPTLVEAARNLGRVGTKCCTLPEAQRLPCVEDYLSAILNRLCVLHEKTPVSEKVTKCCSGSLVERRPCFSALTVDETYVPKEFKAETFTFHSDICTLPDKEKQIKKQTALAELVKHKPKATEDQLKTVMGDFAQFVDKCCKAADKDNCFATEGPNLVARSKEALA
In words: ThermoFluor thermal shift assay with rat serum albumin. It counts as binding. The following applies: Example 4, Table 3.
Excerpt: as §1

Data set [5] has as its target Human Serum Albumin (HSA) site I (Homo sapiens, UniProt P02768). In words: 1,8-ANS site-specific probe displacement (fluorescence) from HSA site I. The following applies: for Fluorescent Signal: initial 1,8-ANS fluorescence as % of fluorescence without compound; for % Displacement: percent displacement of the site-specific probe 1,8-ANS at the second highest concentration of test ligand.
Excerpt: In addition to the thermal shift assay, the assay test plate may be utilized in a separate fluorescence measurement using a plate-based reader that is compatible with any relevant wavelengths. The preferred plate-based reader is Tecan Satire II. The displacement of site-specific probe such as 1,8-ANS from albumin site 1 by test ligand may cause a decrease in observed fluorescence that may be fit to Equation 11 to determine the value of IC50.
Additionally, the percent displacement may be determined by (y−yhigh), divided by the difference of low (y0) and high endpoints (yhigh), wherein y is determined at the second highest concentration.
as §2, §3, §4, §5

Data set [6] has as its target T3, Mouse Serum Albumin (Mus musculus, UniProt P07724).
T3 construct: The above albumins were prepared using method IV of Cohn et al. (J. Am. Chem. Soc. 69: 1753-1761, 1947) and purified with 1× crystallization; purchased Sigma A-3559
Kind of data set: ThermoFluor thermal shift assay with mouse serum albumin. The following applies: Example 4, Table 3. It counts as binding.
Excerpt: as §1

The mark [7] stands for this setting: HSA - KD, Example 3, Table 2, ThermoFluor, Equation 10b.
Setting [8] is: Human Albumin (KD), Example 4, Table 3.

T3 sequence (P07724 25-608): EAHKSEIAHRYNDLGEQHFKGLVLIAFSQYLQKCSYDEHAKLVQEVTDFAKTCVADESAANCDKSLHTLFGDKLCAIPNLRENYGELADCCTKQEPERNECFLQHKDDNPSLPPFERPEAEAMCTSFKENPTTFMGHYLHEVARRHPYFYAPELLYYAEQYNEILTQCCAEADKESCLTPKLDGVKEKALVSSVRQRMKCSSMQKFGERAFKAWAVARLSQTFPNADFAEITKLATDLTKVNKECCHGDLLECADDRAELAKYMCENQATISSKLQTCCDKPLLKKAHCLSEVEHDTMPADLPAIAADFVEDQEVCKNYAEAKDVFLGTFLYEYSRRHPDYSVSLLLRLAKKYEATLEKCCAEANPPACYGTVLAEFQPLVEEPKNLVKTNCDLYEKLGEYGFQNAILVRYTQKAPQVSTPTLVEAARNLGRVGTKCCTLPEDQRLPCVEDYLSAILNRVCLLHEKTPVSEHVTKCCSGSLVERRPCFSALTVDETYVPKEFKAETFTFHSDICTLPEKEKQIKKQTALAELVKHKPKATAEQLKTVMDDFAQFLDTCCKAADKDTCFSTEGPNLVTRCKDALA
Human Serum Albumin (HSA), sequence (P02768 25-609): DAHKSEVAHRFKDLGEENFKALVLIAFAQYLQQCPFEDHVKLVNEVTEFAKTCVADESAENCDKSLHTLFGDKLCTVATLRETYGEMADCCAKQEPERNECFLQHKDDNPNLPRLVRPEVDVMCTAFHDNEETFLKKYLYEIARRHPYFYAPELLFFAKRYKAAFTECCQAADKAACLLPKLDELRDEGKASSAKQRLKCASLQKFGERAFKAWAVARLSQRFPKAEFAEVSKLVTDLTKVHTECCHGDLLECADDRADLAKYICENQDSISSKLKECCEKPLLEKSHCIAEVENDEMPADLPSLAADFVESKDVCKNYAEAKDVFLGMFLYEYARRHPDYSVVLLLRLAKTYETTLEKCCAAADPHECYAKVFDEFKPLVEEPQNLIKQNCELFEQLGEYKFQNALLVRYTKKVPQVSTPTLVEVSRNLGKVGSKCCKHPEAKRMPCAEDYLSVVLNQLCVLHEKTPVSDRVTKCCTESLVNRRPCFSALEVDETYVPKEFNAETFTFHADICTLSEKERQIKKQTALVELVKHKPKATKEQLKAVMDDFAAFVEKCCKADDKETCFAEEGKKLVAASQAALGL
Human Serum Albumin (HSA) site I, sequence (P02768 25-609): as above
HSA, sequence (P02768 25-609): as above

With `CC(C(=O)O)c1ccc(-c2ccccc2)c(F)c1` (stereo not shown) [Flurbiprofen, flurbiprofen], the Kd in data set [1] was found to be 1.88 µM; in data set [2] (setting [7]), 2.1 µM; in data set [2] (setting [8]) it was 2.1 µM; in data set [2] (KD, Example 2, Table 1, from Tm over compound concentration (Equation 10b)) it was 2.7 µM; in data set [4], 2.93 µM; in data set [6] it was 3.79 µM. For the same molecule, in data set [2], the “Type of HSA Binding Interaction” value is recorded as “Type 3”. Moreover, the “HSA Tm” value turned out to be 74.4 °C in data set [2] (compound 0.244 μM); 74.1 °C in data set [2] (compound 0.488 μM); 74.3 °C in data set [2] (compound 0.977 μM); 74.4 °C in data set [2] (compound 1.95 μM); 75.0 °C in data set [2] (compound 3.91 μM); 75.1 °C in data set [2] (compound 7.81 μM). Moreover, the “HSA Tm” value in data set [2] (compound 15.6 μM) turned out to be 75.7 °C; in data set [2] (compound 31.3 μM) it was 76.1 °C; in data set [2] (compound 62.5 μM), 76.8 °C; in data set [2] (compound 125 μM), 78.2 °C; in data set [2] (compound 250 μM), 80.2 °C. Also, the “Reported Binding Site” value in data set [3] is reported as “Site 2”. The molecule further yielded an IC50 in data set [5] of 154 µM. Also, the “Binding to site I of albumin as indicated by 1,8-ANS fluorescence” value in data set [5] (Example 2, dose-dependent change of initial fluorescence) was “does not bind to site I”. Also, the “Fluorescent Signal” value in data set [5] (compound 0.244 μM) was found to be 110%; in data set [5] (compound 0.488 μM) it was 105%; in data set [5] (compound 0.977 μM), 102%; in data set [5] (compound 1.95 μM), 104%; in data set [5] (compound 3.91 μM) it was 118%; in data set [5] (compound 7.81 μM) it was 106%. Further, the “Fluorescent Signal” value in data set [5] (compound 15.6 μM) is on record as 111%; in data set [5] (compound 31.3 μM), 108%; in data set [5] (compound 62.5 μM) it was 101%; in data set [5] (compound 125 μM), 109%; in data set [5] (compound 250 μM), 105%. Also, the “% Displacement” value in data set [5] is recorded as “(47) %”.
Turning to `CCC(Cc1c(I)cc(I)c(O)c1I)C(=O)O` (stereo not shown) [Iophenoxate, iophenoxate], the Kd in data set [1] came out at 0.066 µM; in data set [2], 0.044 µM; in data set [4], 0.048 µM; in data set [6], 0.05 µM. The “Type of HSA Binding Interaction” value in data set [2] is “Type 1”. Moreover, the “Reported Binding Site” value in data set [3] is on record as “Site 1”. For the same molecule, the IC50 in data set [5] worked out at 0.711 µM. Moreover, in data set [5], the “% Displacement” value is “(129) %”.
Turning to `CCCNC(=O)NS(=O)(=O)c1ccc(Cl)cc1` [Chlorpropamide, chlorpropamide], the dissociation constant Kd in data set [1] worked out at 41.7 µM; in data set [2] (setting [7]), 82 µM; in data set [2] (setting [8]) it was 34.7 µM; in data set [4] it was 29.6 µM; in data set [6], 110 µM. Further, in data set [2], the “Type of HSA Binding Interaction” value was “Type 4”. For the same molecule, the “Reported Binding Site” value in data set [3] is “Site 1”. The “% Displacement” value in data set [5] is on record as “(20) %”.
